One experiment concerns the target ecNOS (Homo sapiens, UniProt P29474). Kind of experiment: NOS activity: L-[3H]citrulline formation from L-[3H]arginine, ecNOS. In kind it is biochemical. How it is done: (§1) NOS activity is measured as the formation of L-[2,3,4,5-^3 H]Citrullinefrom L-[2,3,4,5-^3 H]Arginine. The incubation buffer (100 μL) contained; 100 mM TES, pH 7.5, 5 μM FAD, 5 μM FMN, 10 μM BH4, 0.5 mM NADPH, 0.5 mM DTT, 0.5 mg/mL BSA, 2 mM CaCl2, 10 μg/mL calmodulin (bovine), 1 μM L-Arg, 0.2 μCi L-[2,3,4,5-^3 H]Arg, and the inhibitor in aqueous DMSO (max. 5%). The reaction is initiated by addition of enzyme. Incubations are performed at room temperature for 30 minutes and stopped by the addition of an equal volume of quenching buffer consisting of 200 mM sodium citrate, pH 2.2, 0.02% sodium azide. Reaction products are separated by passing through a cation exchange resin and quantitated as cpm by scintillation counting.

The next experiment addresses ncNOS (Homo sapiens, UniProt P29475). The experiment in a line: biochemical.
A further experiment has as its target iNOS (Homo sapiens, UniProt P35228). The experiment in a line: NOS activity: L-[3H]citrulline formation from L-[3H]arginine, iNOS. In kind it is biochemical. How it is done:
as §1

Setting [1] is: Table 2, ecNOS, 1 μM L-Arg, pH 7.5, room temperature, 30 minutes, read-out: ecNOS (IC50).
[2] abbreviates: Table 2, ncNOS, 1 μM L-Arg, pH 7.5, room temperature, 30 minutes, read-out: ncNOS (IC50).
[3] abbreviates: Table 2, iNOS, 1 μM L-Arg, pH 7.5, room temperature, 30 minutes, read-out: iNOS (IC50).
Setting [4] is: Table 1, iNOS, 1 μM L-Arg, pH 7.5, room temperature, 30 minutes, read-out: iNOS (IC50).
Setting [5] is: Table 1, ecNOS, 1 μM L-Arg, pH 7.5, room temperature, 30 minutes, read-out: ecNOS (IC50).

Where a name gives a salt, the structure may show the parent alone. Read-outs that look alike come from different tables or passages of the source.

ncNOS, sequence (P29475 whole entry): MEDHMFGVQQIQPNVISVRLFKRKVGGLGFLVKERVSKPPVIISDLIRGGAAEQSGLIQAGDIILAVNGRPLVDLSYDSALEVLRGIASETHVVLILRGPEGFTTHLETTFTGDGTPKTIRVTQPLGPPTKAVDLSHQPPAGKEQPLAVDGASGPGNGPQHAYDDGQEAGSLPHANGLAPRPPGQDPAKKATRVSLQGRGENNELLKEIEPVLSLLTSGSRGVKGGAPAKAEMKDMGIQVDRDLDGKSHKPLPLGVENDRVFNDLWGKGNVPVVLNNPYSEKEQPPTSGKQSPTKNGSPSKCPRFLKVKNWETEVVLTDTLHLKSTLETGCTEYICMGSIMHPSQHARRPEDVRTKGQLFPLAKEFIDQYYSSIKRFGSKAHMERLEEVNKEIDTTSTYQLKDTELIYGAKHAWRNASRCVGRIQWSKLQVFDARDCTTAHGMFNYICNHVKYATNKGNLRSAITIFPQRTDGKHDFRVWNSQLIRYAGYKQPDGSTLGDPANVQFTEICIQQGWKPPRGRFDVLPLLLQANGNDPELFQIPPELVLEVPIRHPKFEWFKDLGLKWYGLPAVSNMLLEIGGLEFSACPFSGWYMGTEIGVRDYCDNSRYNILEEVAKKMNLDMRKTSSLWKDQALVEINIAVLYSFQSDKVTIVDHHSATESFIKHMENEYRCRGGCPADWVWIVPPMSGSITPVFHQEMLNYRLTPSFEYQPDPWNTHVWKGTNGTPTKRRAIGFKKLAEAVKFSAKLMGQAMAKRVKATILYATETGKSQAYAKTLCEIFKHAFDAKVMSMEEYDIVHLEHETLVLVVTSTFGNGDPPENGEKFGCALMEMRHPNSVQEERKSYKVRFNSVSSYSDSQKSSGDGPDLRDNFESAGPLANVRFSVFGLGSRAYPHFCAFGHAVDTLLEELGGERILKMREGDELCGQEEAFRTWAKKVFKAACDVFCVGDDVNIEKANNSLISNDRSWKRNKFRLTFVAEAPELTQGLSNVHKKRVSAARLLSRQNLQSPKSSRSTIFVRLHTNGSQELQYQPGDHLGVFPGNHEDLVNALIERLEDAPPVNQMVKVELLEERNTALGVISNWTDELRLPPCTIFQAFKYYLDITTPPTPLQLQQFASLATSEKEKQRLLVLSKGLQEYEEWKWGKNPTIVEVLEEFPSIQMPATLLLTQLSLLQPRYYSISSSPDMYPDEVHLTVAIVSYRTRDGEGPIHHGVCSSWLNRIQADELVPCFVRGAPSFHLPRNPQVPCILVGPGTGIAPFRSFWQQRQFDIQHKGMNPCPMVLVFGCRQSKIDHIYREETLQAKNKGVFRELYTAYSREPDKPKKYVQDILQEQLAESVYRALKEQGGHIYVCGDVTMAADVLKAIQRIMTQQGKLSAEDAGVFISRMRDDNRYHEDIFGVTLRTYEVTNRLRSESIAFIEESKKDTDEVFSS

For orientation: IC50 means the concentration that inhibits the measured activity by half. As to `Cc1cc(N)nc(CCCc2ccccc2)c1` [Example 69, 2-Amino-4-methyl-6-(3-phenylpropyl)pyridine], the concentration for half-maximal inhibition (IC50) on ecNOS (setting [1]) was under 50 µM; on ncNOS (setting [2]), under 10 µM; on iNOS (setting [3]), under 50 µM.
For `CSc1ccnc(N)c1` [Example 35, 4-Methylthio-2-aminopyridine], the results for the IC50 on ecNOS (setting [1]), at ncNOS (setting [2]) and on iNOS (setting [3]) were under 50 µM, under 10 µM and under 50 µM, respectively.
Regarding `Cc1cc(N)nc(CCN)c1` [Example 67, 2-Amino-6-(2-aminoethyl)-4-methylpyridine], the IC50 at ecNOS (setting [1]) was under 50 µM; on ncNOS (setting [2]), under 1 µM; at iNOS (setting [3]), under 1 µM.
In the case of `Cc1cc(N)nc(CCCN)c1` [Example 66, 2-Amino-6-(3-aminopropyl)-4-methylpyridine], the half-maximal inhibitory concentration (IC50) at ecNOS (setting [1]) is under 10 µM; at ncNOS (setting [2]), under 1 µM; at iNOS (setting [3]), under 1 µM.
As to `Cc1cc(N)ncc1N` [Example 30, 2.5-Diamino-4-picoline], the concentration for half-maximal inhibition (IC50) was under 50 µM against ecNOS, under 50 µM against ncNOS and under 10 µM at iNOS.
Turning to `Nc1cc(-c2ccccc2)ccn1` [Example 11], the half-inhibitory concentration (IC50) on iNOS (setting [4]) is over 50 µM.
As to `CC(=O)NCc1cnc(N)cc1C` [Example 46, 2-Amino-5-acetamidomethyl-4-methylpyridine], the IC50 at ecNOS (setting [1]) was over 50 µM; at ncNOS (setting [2]), over 50 µM; on iNOS (setting [3]), under 10 µM.
With `CCCCCc1cnc(N)cc1C` [Example 33, 2-Amino-4-methyl-5-pentyl-pyridine], the half-inhibitory concentration (IC50) at ecNOS (setting [1]) was over 50 µM; on ncNOS (setting [2]), under 10 µM; on iNOS (setting [3]), under 50 µM.
For `COc1ccnc(N)c1` [Example 34, 4-Methoxy-2-aminopyridine] the same measures were under 10 µM, under 10 µM and under 10 µM.
In the same order, the values of `Cc1cc(N)ncc1CN` [Example 45, 2-Amino-5-aminomethyl-4-methylpyridine dihydrochloride] are under 10 µM, under 50 µM and under 10 µM.
In the same order, the values of `Cc1ccnc(N)c1NC(=O)NCc1ccccc1` [Example 19, 2-Amino-3-benzylurea-4-picoline] are over 50 µM, over 50 µM and under 10 µM.
For the compound `Nc1ccc(-c2ccccc2)cn1` [Example 39, 2-Amino-5-phenylpyridine], the half-inhibitory concentration (IC50) at iNOS (setting [3]) was over 50 µM.
`Cc1cc(N)nc(CC[C@@H](C)N)c1` [Example 77, (R)-2-Amino-6-(3-aminobutyl)-4-methylpyridine]: the 50% inhibitory concentration (IC50) at ecNOS (setting [1]) was under 50 µM; at ncNOS (setting [2]), under 1 µM; on iNOS (setting [3]), under 10 µM.
Regarding `CCCc1c(C)ccnc1N` [Example 26, 2-Amino-3-n-propyl-4-picoline dihydrochloride], the IC50 on iNOS (setting [3]) was under 50 µM.
Consider `Cc1ccnc(NCc2ccccc2)c1` [Example 18, 2-Benzylamino-4-methylpyridine], for which the IC50 at ecNOS (setting [5]) is under 50 µM; at iNOS (setting [4]) it was 2.4 µM.
`Cc1cc(N)nc(CCO)c1` [Example 58, 2-Amino-6-(2-hydroxyethyl)-4-methylpyridine]: the IC50 on ecNOS (setting [1]), at ncNOS (setting [2]) and at iNOS (setting [3]) was under 1 µM throughout.
Turning to `Cc1ccc(N)nc1C` [Example 51, 2-Amino-5,6-dimethylpyridine], the IC50 on ecNOS (setting [1]), at ncNOS (setting [2]) and on iNOS (setting [3]) was under 10 µM in each case.
As for `Cc1cc(N)ncc1-c1ccccc1` [Example 40, 2-Amino-4-methyl-5-phenylpyridine], at iNOS (setting [3]), the half-maximal inhibitory concentration (IC50) is over 50 µM.
For `Cc1cc(C)nc(N)c1` [Example 6], the IC50 at iNOS (setting [4]) was determined as 0.108 µM.
`Nc1ccnc(N)c1` [Example 38, 2,4-Diaminopyridine dihydrochloride]: the IC50 at ecNOS (setting [1]) was under 50 µM; on ncNOS (setting [2]), under 50 µM; at iNOS (setting [3]), under 10 µM.
In the case of `Cc1cc(N)nc(CCCC(=O)O)c1` [Example 75, 4-(6-Amino-4-methyl-2-pyridinyl)butanoic acid hydrochloride], the IC50 at ecNOS (setting [1]) is under 1 µM; at ncNOS (setting [2]) it was under 10 µM; on iNOS (setting [3]), under 10 µM.
For the compound `Nc1cc(Cl)ccn1` [Example 15, 2-Amino-4-chloropyridine], the IC50 on ecNOS (setting [5]) is under 10 µM; at ncNOS (Table 1, ncNOS, 1 μM L-Arg, pH 7.5, room temperature, 30 minutes, read-out: ncNOS (IC50)), under 10 µM; at iNOS (setting [4]) it was under 1 µM.
As for `Cc1cc(N)nc(CCCCc2ccccc2)c1` [Example 70, 2-Amino-4-methyl-6-(4-phenylbutyl)pyridine], the IC50 on ecNOS (setting [1]), at ncNOS (setting [2]) and on iNOS (setting [3]) was under 10 µM each time.
Consider `Nc1cc(C(F)(F)F)ccn1` [Example 8], for which the results for the IC50 at ecNOS (setting [5]) and at iNOS (setting [4]) were 73 µM and 13.2 µM, respectively.
Regarding `Cc1ccnc(N)c1Cl` [Example 28, 2-Amino-3-chloro-4-picoline], the values for the IC50 on ecNOS (setting [1]), at ncNOS (setting [2]) and on iNOS (setting [3]) were under 10 µM, under 10 µM and under 1 µM, respectively.
For `Cc1cc(N)nc(CC(C)C)c1` [Example 72, 2-Amino-4-methyl-6-(2-methylpropyl)pyridine], the concentration for half-maximal inhibition (IC50) on ecNOS (setting [1]), at ncNOS (setting [2]) and at iNOS (setting [3]) was under 1 µM throughout.
Turning to `CCc1cccc(N)n1` [Example 52, 2-Amino-6-ethylpyridine], the IC50 on ecNOS (setting [1]), on ncNOS (setting [2]) and at iNOS (setting [3]) was under 1 µM each time.
On to `Cc1cccc(N)n1` [Example 5], for which the half-inhibitory concentration (IC50) at ecNOS (setting [5]) worked out at 0.82 µM.
For the compound `Nc1cccnc1N` [Example 10], the half-maximal inhibitory concentration (IC50) was 1.9 µM at ecNOS (setting [5]) and under 10 µM at iNOS (setting [4]).
Regarding `CCc1ccc(N)nc1` [Example 60, 2-Amino-5-ethylpyridine], the 50% inhibitory concentration (IC50) at ecNOS (setting [1]) is under 50 µM; on iNOS (setting [3]), under 10 µM.
Regarding `Cc1ccc(N)nc1` [Example 4], the IC50 on ecNOS (setting [5]) came out at 3.1 µM; on iNOS (setting [4]), 1.3 µM.
Regarding `Cc1cccnc1N` [Example 2], the IC50 came out at 1.2 µM on ecNOS (setting [5]) and 3.4 µM at iNOS (setting [4]).
For `Nc1cc2c(cn1)CCCC2` [Example 64, 3-Amino-5,6,7,8-tetrahydroisoquinoline], the IC50 at iNOS (setting [3]) was under 10 µM.
In the case of `COC(=O)c1cnc(N)cc1C` [Example 44, 2-Amino-5-methoxycarbonyl-4-methylpyridine], on iNOS (setting [3]), the IC50 is over 50 µM.
Regarding `Cc1ccnc(N)c1C` [Example 13, 2-Amino-3,4-dimethylpyridine], the IC50 on ecNOS (setting [5]) is under 1 µM; on iNOS (setting [4]), 0.076 µM.
Regarding `CC(C)(C)c1ccnc(N)c1` [Example 14, 2-Amino-4-tert-butylpyridine], the IC50 at iNOS (setting [4]) was over 50 µM.
As for `N#Cc1ccnc(N)c1` [Example 16, 2-Amino-4-cyanopyridine], the concentration for half-maximal inhibition (IC50) at iNOS (setting [4]) is over 50 µM.
Consider `CCc1c(C)ccnc1N` [Example 24, 2-Amino-3-ethyl-4-picoline dihydrochloride], for which the half-maximal inhibitory concentration (IC50) on ecNOS (setting [1]) and at iNOS (setting [3]) was under 10 µM each time.
Turning to `Nc1cc(Cc2ccccc2)ccn1` [Example 12], the IC50 at iNOS (setting [4]) was over 50 µM.
Consider `Cc1cc(N)ncc1C#N` [Example 42, 2-Amino-5-cyano-4-methylpyridine], for which, on iNOS (setting [3]), the half-inhibitory concentration (IC50) was over 50 µM.
Turning to `Cc1ccnc(N)c1N` [Example 17, 2,3-Diamino-4-methylpyridine], the IC50 at ecNOS (setting [5]) is 0.081 µM; on iNOS (setting [4]), 0.058 µM.
Regarding `Cc1cc(N)ncc1CO` [Example 47, 2-Amino-5-hydroxymethyl-4-methylpyridine], the IC50 on iNOS (setting [3]) is under 10 µM.
For the compound `Cc1ccnc(N)c1CO` [Example 23, 2-Amino-3-hydroxymethyl-4-picoline], the IC50 at ecNOS (setting [1]) and on iNOS (setting [3]) was under 1 µM in each case.

Source of the values: patent publication US5972975A, “Substituted 2-aminopyridines as inhibitors of nitric oxide synthase” (priority 1997, dated 1999).
